One data set has as its system ssRNA corona virus. Nature of the data set: Antiviral activity of labeled RNase I variants against ssRNA corona virus. It is filed as cell-based.
Data set [1] in a line: Cellular uptake of fluorescamine-labeled RNase I variants. Format: cell-based. Conditions: fluorescamine label.
For another data set, the system named is FMD virus. Format: cell-based.
Another data set concerns dsRNA reovirus. Nature of the data set: Combination of human RNase I and human RNase III against reovirus in HEP-2 cells. It is filed as cell-based. The note with it: 200 UA/ml. The procedure: The reovirus stock preparation used in this example has a titer of 5.5 log CPD50/0.1 ml.
Data set [2] has as its system Influenza virus A/Aichi/2/68/H3N2. It is filed as in vivo. The note with it: mice, single values.
The subject of the next data set is West Nile virus. Nature of the data set: Antiviral effect of modified RNase I against West Nile virus in newborn rabbit kidney cells. The note with it: average of four replicate determinations.
In the next data set the test system is double-stranded RNA. Conditions: physiological salt conditions; double-stranded RNA substrate; cited from earlier work.
The test system of a further data set is FMDV of O-type. Conditions: guinea pig, in vivo.

Where “and” joins values, the source holds several entries; their conditions need not be identical. Equal values may be shown once. Read-outs that look alike come from different tables or passages of the source.

Take “*RNase I: fluorescamine-labeled human RNase I”: in the data set with ssRNA corona virus, the “Average Titer” value came out at 5.4. In data set [1], the “Cellular Uptake [OD430 nm]” value is 110.
Take “RNase: recombinant / wild-type human RNase I (Examples 22, 30, 31)”: the Titer with FMD virus was 7.3; 7.1; 6.8 logTCD50/ml; in the data set on dsRNA reovirus (single values), 3.9 logTCD50/0.1 ml and 4.0 logTCD50/0.1 ml and 4.1 logTCD50/0.1 ml. In addition, the “Average Titer” value with dsRNA reovirus is 4.0 logTCD50/0.1 ml. Moreover, the Titer in lungs in data set [2] (treatment i.n.) was 4.5 log TCD50 and 4.0 log TCD50 and 4.3 log TCD50; in data set [2] (treatment i.p.) it was 4.7 log TCD50 and 5.0 log TCD50 and 4.5 log TCD50. Moreover, the logTCD50/ml in the data set with West Nile virus (100 UA/ml) was 7.7 logTCD50/ml; in the data set on West Nile virus (250 UA/ml), 7.0 logTCD50/ml. The “enzymatic activity relative to RNase A” value in the data set with double-stranded RNA is reported as “about 500 times”. The Survived in the data set on FMDV of O-type worked out at 40; in the data set with FMDV of O-type (record 2), 32. Also, the “duration of preventive effect after a single injection” value in the data set with FMDV of O-type was “at least 4 hours”. Moreover, in the data set on FMDV of O-type (sc), the “animals that developed FMD” value amounted to 8.

The values above are taken from patent US10335372B2, “Compositions with modified nucleases targeted to viral nucleic acids and methods of use for prevention and treatment of viral diseases” (priority 2004, dated 2019).
